The source of these data is paper PMC12336229, “Peptide-mimetics derived from leucyl-tRNA synthetase are potential agents for the therapy of mt-tRNA related diseases” (Frontiers in Pharmacology, 2025).

The test system of data set [1] is Adult C57BL/6 male mice. The data set can be described thus: Morphological analysis of selected organs (hematoxylin and eosin). It counts as in vivo, mouse. As to conditions: 1, 5 and 10 mg/kg i.v.; hematoxylin and eosin sections; treated vs controls. On the procedure: (§1) After the test, mice were sacrificed under general anaesthesia (4% isoflurane in medical air) by cardiac puncture to withdraw blood, brain, heart, liver, kidney, spleen, and lymph nodes, which were collected into tubes with buffered formalin and stored at +4°C.
At the end of the tolerability test, tissues collected from animals injected with saline (n = 5) or treated with 1, 5 and 10 mg/kg of PMT (n = 10), were formalin-fixed and paraffin-embedded. Five µm-thick sections were obtained from the paraffin blocks and stained with hematoxylin and eosin for histologic examination.

In data set [2] the test system is Adult C57BL/6 male mice. The data set can be described thus: Tolerability in animals (i.v., scores, body weight, grid-hanging test). Format: in vivo. On the procedure: Sixty adult C57BL/6 male mice were initially included in the study. Twenty animals were dedicated to in vivo/ex vivo biodistribution of the radiolabelled PMT ^64Cu-PMT. The evaluation was carried out at four time points: 1, 3, 24 and 48 h. Forty animals were dedicated to tolerability studies with increasing PMT concentration: 1, 5, 10 and 50 mg/kg PMT or saline, i. v. (n = 10 per group). […] Therefore, only three groups of ten animals were dedicated to the tolerability test, and fifty C57BL/6 male mice were employed for the current study in total. […] Due to the rapidity of death, and the hydrophobic character of the C-terminal region of the PMT (see the Discussion section), it is possible that PMT aggregates obstructed one or more small vessels, causing micro-infarctions in vital organs (e.g., lung, heart, brain).
Adult C57BL/6 male mice were used to determine the general tolerability of i. v. administered PMT and identify the Maximum Tolerated Dose (MTD). To this purpose, animals were divided into four groups (n = 10 each) and injected in a tail vein with either saline (controls) or PMT freshly dissolved in saline at three scalar doses (1, 5 or 10 mg/kg). Each group was randomly divided in two subgroups (n = 5 each). Blood ocular withdrawal was performed at 1 h and 48 h post-injection for each subgroup, respectively. During this procedure, animals were anaesthetized with isoflurane (2% in medical air) and monitored until awakening.
The effect of PMT administration was evaluated every 2 days by observation of the animals and application of the following criteria and scores (see Supplementary Table S1): body weight loss (score: 1–5); coat conditions (score: 1–3); dehydration (score: 1–3); respiration (score: 1–3); spontaneous behaviour (score: 0–5); reaction to handling (score: 0–3) (IACUC of the San Raffaele Research Institute and FELASA Glossary 2015 ([Fentener van Vlissingen et al., 2015]).
The observation was carried out for 2 weeks post peptide injection. At the end, all the animals underwent a grid-hanging test to measure muscular strength performances after PMT or saline treatment ([Gayi et al., 2018]).
After a period of habituation to the metallic grid, mice were placed individually on top of a metallic grid (40 × 40 cm, 1.3 cm square mesh) suspended 50 cm above an empty cage. The grid was turned upside down and latency to fall was measured up to a fixed limit of 600 s. Each mouse performed three trials and the longest holding time (s) among them was multiplied by the animal’s body weight (g) to calculate Holding impulse (g*s).
as §1
Data on PMT tolerability in animals (i.e., body mass monitoring and grip-hanging test) are expressed as mean ± SD and analysed using one-way ANOVA corrected for multiple comparison Turkey test.

The test system of data set [3] is mutant cybrids. Description: Confocal fluorescence microscopy, co-localization with mitochondria (Mitotracker Red). It counts as cell-based, human. The procedure:
(§2) Previously established osteosarcoma-derived (143B.TK-) cybrid cell lines from patients, which bear either the m.3243A>G mutation in mt-tRNA^Leu(UUR) or the m.8344A>G mutation in mt-tRNA^Lys and controls ([Perli et al., 2014]; [Perli et al., 2016]; [Perli et al., 2020]) were used.
Constructs made of compounds listed in Table 1, comprising D-peptides linked to the Cy5 fluorophore via maleimide cross-linker, were administered to sub-confluent cybrid cell cultures at 0.25 µM in glucose medium. About 24 h after treatment with each construct, cells were incubated with 200 nM Mitotracker Red FM (LifeTechnologies Italia, Monza, Italy) for 30 min at 37°C.
Subsequently, cells were visualized by confocal microscopy. Images of 800 × 800 px (at 88 nm/px) were acquired at the Olympus iX83 FluoView1200 laser scanning confocal microscope using a 60 × NA1,35 oil objective (Olympus Italia SRL Milano, Italy), zoom 3×, 559 nm, and 635 nm lasers and filter setting for Mitotracker Red and Cy5. The fluorescence images were analysed with the ImageJ software ([Rasband, 2018]) to determine the Pearson’s correlation coefficient.
For a subset of experiments, we evaluated the mt localization of constructs up to 72 h after treatment. PMT and PMT fragments were administered to sub-confluent cybrids at a concentration of 0.25 µM in the glucose medium. At 24-, 48- and 72-h after treatment, cells were incubated with Mitotracker Red and visualized by confocal microscopy. After each confocal imaging section, a fresh glucose medium was added to the cells, which were maintained under standard conditions (a humidified atmosphere of 95% air and 5% CO2 at 37°C).

In data set [4] the test system is control cells (WT and L-8344 cybrids). Description: Respirometry assay, oxygen consumption rate (Clark type oxygen electrode). It counts as cell-based, human. The settings on record: after 36 h, treated/vehicle ratio. The procedure: as §2
(§3) Oxygen consumption rate (OCR) of cybrids was evaluated with Clark type oxygen electrode (Hansatech Instruments, Norfolk, United Kingdom). After cybrid incubation with compounds at 5 µM concentration, both control and mutant cybrids were maintained in glucose medium for 36 h, then OCR was measured in intact cells (3 × 10^6) in 1 mL DMEM lacking glucose supplemented with […].

The subject of data set [5] is m.8344A>G mutant cybrids (H-8344). The description is as above. Format: cell-based, human. The settings on record: 5 µM; after 36 h of treatment; compared with vehicle mutant cells. The procedure:
as §2, §3

The test system of data set [6] is m.3243A>G mutant cybrids. The data set is described as above. Format: cell-based, human. As to conditions: 5 µM; after 36 h of treatment; compared with vehicle mutant cells. The procedure: as §2, §3

For `CC[C@@H](C)[C@@H](NC(=O)[C@@H](CC(C)C)NC(=O)[C@@H](C)NC(=O)[C@H](NC(=O)[C@@H](CCCNC(=N)N)NC(=O)[C@H]1CCCN1C(=O)[C@@H](CO)NC(=O)[C@@H](CC(C)C)NC(=O)[C@@H](Cc1ccccc1)NC(=O)[C@@H](CO)NC(=O)[C@@H](CCCCN)NC(=O)[C@H](N)CCCCN)[C@H](C)O)C(=O)N[C@H](CC(N)=O)C(=O)N[C@H](Cc1ccccc1)C(=O)N[C@H](CC(C)C)C(=O)N[C@@H](C(N)=O)C(C)C` [PMT], the “Morphological change in organs or tissues” value in data set [1] was “did not reveal any morphological change”. Further, the “Tolerability after a single i.v. acute administration” value in data set [2] (1, 5 and 10 mg/kg, wild-type mice, 14 days of observation) is “well tolerated”. Besides, in data set [2] (mouse, in vivo), the “Mice with decrease of body weight (score 4)” value was 1/10, the “Mice with mild tachypnoea (score 1)” value was 5/10, the “Mice with slight decrease of body weight (score 1)” value is 5/10 and the “Mice with slight decrease of body weight (score 1–2)” value is given as 5/10. In addition, the “Outcome of the highest dose” value in data set [2] (mouse, in vivo) is “died immediately after the administration”. In addition, the Safe dosage result in data set [2] (mouse, in vivo, iv) is reported as “up to 10 mg/kg”. In addition, the Necropsy finding entry in data set [2] (mouse, in vivo, iv, 50 mg/kg) is reported as “did not highlight any obvious macroscopic effect”. Also, the “Pearson's correlation coefficient (PCC), mt localization” value in data set [3] (Cy5 constructs 0.25 µM in glucose medium, imaged after 24 h, Mitotracker Red, mean ± SEM of at least five images) turned out to be 0.83 ± 0.02. For the same molecule, in data set [3] (Cy5 constructs 0.25 µM, imaged after 24, 48 and 72 hours), the “Mitochondrial localization over time” value is given as “colocalize with mitochondria up to 72 hours”. In addition, in data set [4], the “Oxygen consumption of control cells” value was “do not affect”. For the same molecule, in data set [5], the Oxygen consumption rate result is given as “significant increase”. The Oxygen consumption rate result in data set [6] is reported as “significant increase”.
